IC50 data for one compound are collected here from patent US7915291B2, “Hepatitis C virus inhibitors” (Bristol-Myers Squibb Company, priority 2002, dated 2011).

Usually IC50 stands for the point on the concentration scale where inhibition reaches its midpoint.

Experiment [1] concerns the target T1, HCV NS3/4A protease complex, J4L6S strain (Hepatitis C virus genotype 1b, UniProt O92972, C1454S/C1711G).
T1 construct: recombinant HCV NS3/4A protease complex (amino acids 1027 to 1711); inferred from pET21b vector and Ni-NTA purification; made in house; host or cells: Escherichia coli BL21 (DE3), pET21b
Description: Recombinant HCV NS3/4A protease complex FRET peptide assay (J4L6S strain). Type of experiment: biochemical, HCV genotype 1b. From the text: Recombinant HCV NS3/4A Protease Complex FRET Peptide Assay
The purpose of this in vitro assay was to measure the inhibition of HCV NS3 protease complexes, derived from the BMS, H77C or J416S strains, as described below, by compounds of the present invention. This assay provides an indication of how effective compounds of the present invention would be in inhibiting HCV proteolytic activity.
Serum from an HCV-infected patient was obtained from Dr. T. Wright, San Francisco Hospital. An engineered full-length cDNA (compliment deoxyribonucleic acid) template of the HCV genome (BMS strain) was constructed from DNA fragments obtained by reverse transcription-PCR(RT-PCR) of serum RNA (ribonucleic acid) and using primers selected on the basis of homology between other genotype 1a strains. From the determination of the entire genome sequence, a genotype 1a was assigned to the HCV isolate according to the classification of Simmonds et al. (See P Simmonds, Kans. Rose, S Graham, S W Chan, F McOmish, B C Dow, E A Follett, P L Yap and H Marsden, J. Clin. Microbiol., 31(6), 1493-1503 (1993)). […]

The next experiment deals with T2, human liver cathepsin B (Homo sapiens, UniProt P07858).
T2 construct: purchased Sigma; host or cells: human liver (as named)
As to the kind of experiment: Specificity assay, cathepsin B. Type of experiment: biochemical. The following applies: 2 hr pre-incubation. How it is done: The specificities of compounds of the present invention were determined against a variety of serine proteases: human leukocyte elastase (HLE), porcine pancreatic elastase (PPE) and human pancreatic chymotrypsin and one cysteine protease: human liver cathepsin B. In all cases a 96-well plate format protocol using colorimetric p -nitroaniline (pNA) substrate specific for each enzyme was used as described previously (Patent WO 00/09543) with some modifications to the serine protease assays. All enzymes were purchased from Sigma while the substrates were from Bachem.
Each assay included a 2 hr enzyme-inhibitor pre-incubation at RT followed by addition of substrate and hydrolysis to ˜30% conversion as measured on a Spectramax Pro microplate reader. Compound concentrations varied from 100 to 0.4 μM depending on their potency. […]
The percentage of inhibition was calculated using the formula: [1−((UVinh−UVblank)/(UVctl−UVblank))]×100 […]

T1 sequence (O92972 1027-1711 C1454S/C1711G, one chain of several): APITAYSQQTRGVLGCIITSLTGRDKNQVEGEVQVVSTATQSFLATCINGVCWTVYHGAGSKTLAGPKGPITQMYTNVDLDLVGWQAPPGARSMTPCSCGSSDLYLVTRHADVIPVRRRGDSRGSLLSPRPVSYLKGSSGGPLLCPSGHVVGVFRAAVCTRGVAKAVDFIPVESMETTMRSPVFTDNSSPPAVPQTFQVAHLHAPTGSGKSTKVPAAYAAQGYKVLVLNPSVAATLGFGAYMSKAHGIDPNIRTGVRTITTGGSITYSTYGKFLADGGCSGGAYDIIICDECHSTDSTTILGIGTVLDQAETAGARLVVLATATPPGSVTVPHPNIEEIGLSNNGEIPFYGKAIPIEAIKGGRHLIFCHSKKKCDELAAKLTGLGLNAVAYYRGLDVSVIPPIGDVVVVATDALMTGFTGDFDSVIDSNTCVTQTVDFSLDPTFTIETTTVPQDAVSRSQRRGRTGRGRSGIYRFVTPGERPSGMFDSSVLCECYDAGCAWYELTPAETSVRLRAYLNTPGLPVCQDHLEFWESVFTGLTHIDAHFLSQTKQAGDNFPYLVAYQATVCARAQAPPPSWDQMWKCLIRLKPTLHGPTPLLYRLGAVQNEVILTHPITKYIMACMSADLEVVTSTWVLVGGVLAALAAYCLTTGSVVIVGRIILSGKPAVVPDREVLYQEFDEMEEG

With `C=C[C@@H]1C[C@]1(NC(=O)[C@@H]1C[C@@H](Oc2nc(C3CC3)cc3ccccc23)CN1C(=O)[C@@H](NC(=O)OC(C)(C)C)C(C)(C)C)C(=O)NS(=O)(=O)C1CC1` [Compound 34], the values for the IC50 (in experiment [1]; at human liver cathepsin B) were 2.9 nM and greater than 200000 nM, respectively.
